In series [1] the target is beta (ERβ) estrogen receptor (Rattus norvegicus, UniProt Q62986). As to conditions: cited from earlier work.
The subject of series [2] is estrogen receptor. As to conditions: 107-compound training set; cited from earlier work.
Series [3] has as its system estrogen receptor. As to the kind of experiment: estrogen receptor binding class of the 30-compound training set. An excerpt:
Two Spectral Data-Activity Relationship (SDAR) models were established, based on ^13C NMR and EI MS spectra, for 30 estrogenic chemicals whose relative binding affinities (RBA) for the alpha (ERα) and beta (ERβ) estrogen receptors are available.
Strong binders to the estrogen receptor were classified as having a log (RBA) over 0.0, and medium binders to the estrogen receptor were classified as having a log (RBA) of less than or equal to 0.0.

Series [4] concerns the target T1, alpha (ERα) estrogen receptor (Homo sapiens, UniProt P03372).
T1 sequence (P03372 1-595): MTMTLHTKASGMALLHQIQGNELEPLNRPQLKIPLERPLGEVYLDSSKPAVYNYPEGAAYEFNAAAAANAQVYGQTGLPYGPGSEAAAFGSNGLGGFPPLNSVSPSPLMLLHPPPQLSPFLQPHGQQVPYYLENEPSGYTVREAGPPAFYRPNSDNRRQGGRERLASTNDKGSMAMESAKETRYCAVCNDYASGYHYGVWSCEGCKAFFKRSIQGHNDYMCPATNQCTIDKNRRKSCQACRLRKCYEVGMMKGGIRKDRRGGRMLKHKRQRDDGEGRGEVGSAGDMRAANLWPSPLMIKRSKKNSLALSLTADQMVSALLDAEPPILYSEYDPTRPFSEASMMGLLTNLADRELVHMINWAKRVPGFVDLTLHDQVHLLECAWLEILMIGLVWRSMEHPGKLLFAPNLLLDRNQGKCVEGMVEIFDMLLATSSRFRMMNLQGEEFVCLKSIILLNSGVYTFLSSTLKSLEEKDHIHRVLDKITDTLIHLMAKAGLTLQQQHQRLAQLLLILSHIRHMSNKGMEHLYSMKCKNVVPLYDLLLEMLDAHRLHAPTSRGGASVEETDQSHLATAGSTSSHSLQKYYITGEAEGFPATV
To be noted: cited from earlier work.

Series [5] relates to estrogen receptor. Nature of the series: estrogen receptor relative binding affinity, expanded training set of 107 compounds. To be noted: input class, 107-compound training set. An excerpt:
The training set included weak estrogen receptor binders in addition to strong and medium estrogen receptor binders.
For this model, strong estrogen receptor binders were defined as having log(RBA)>−0.25 and weak estrogen receptor binders were defined as having log(RBA)<−3.0. Medium estrogen receptor binders were defined as having log(RBA) in between.

The conditions of series [6]: formation of singlet oxygen in fluid solutions; cited from earlier work.
Series [7] can be described thus: quantum yield for photosensitized production of singlet oxygen. To be noted: class from singlet oxygen quantum yield. In kind it is physicochemical. An excerpt:
Phototosensitized oxidations involving singlet oxygen, a strong oxidant, are implicated in photodynamic inactivation of viruses and cells, in phototherapy for cancer, in photocarcinogenesis and in photodegradation of dyes and polymers. Quenching of excited singlet and triplet states of many substances by ground state molecular oxygen produces singlet oxygen; the lowest electronically excited singlet state of molecular oxygen. A compilation of the quantum yields for the formation of singlet oxygen in fluid solutions for over 700 substances is available from the Notre Dame Radiation Laboratory—Radiation Chemistry Data Center.
The compounds are divided into two endpoint classes based upon having a high quantum yield for production of singlet oxygen (H, QY>0.50) or a low quantum yield for production of singlet oxygen (L, QY<0.50).

Where [8] appears, read: SDAR training input endpoint class, 30 compounds.
The mark [9] stands for this setting: log of relative binding affinity, 17-β-estradiol RBA = 100.

The structures appear in SMILES notation. Where two headings read alike, the source gives them in different places.

Sequence of beta (ERβ) estrogen receptor (Q62986 whole entry): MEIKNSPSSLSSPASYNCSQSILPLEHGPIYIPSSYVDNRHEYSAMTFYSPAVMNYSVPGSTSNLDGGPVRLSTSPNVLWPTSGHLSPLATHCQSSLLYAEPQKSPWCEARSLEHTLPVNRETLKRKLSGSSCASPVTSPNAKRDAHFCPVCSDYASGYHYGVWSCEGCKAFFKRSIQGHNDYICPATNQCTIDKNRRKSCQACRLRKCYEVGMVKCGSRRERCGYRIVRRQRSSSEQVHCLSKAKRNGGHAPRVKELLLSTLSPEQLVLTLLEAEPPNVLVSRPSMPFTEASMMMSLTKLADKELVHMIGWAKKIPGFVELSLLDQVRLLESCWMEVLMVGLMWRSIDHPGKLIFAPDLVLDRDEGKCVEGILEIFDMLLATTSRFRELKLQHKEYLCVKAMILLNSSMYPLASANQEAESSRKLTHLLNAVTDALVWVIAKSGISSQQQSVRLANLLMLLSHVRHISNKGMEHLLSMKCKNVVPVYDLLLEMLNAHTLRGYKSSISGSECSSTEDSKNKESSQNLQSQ

`C[C@]12CC[C@@H](O)C[C@@H]1CC[C@@H]1[C@@H]2CC[C@]2(C)[C@@H](O)CC[C@@H]12` [3α-Androstanediol, 5α-Androstane-3α,17β-diol]: the “Log-(RBA) beta” value in series [1] is reported as −0.52. Also, in series [2], the “log RBA” value is given as −2.67. Further, in series [3], the “RBA class in words” value is “medium”. The “Class Input” value in series [3] (setting [8]) is “M (medium binders to the estrogen receptor were classified as having a log (RBA) of less than or equal to 0.0)”. Moreover, in series [4], the “Log-(RBA) alpha” value is −1.15. In addition, the Class result in series [5] is “M (Medium estrogen receptor binders were defined as having log(RBA) in between)”.
Turning to `C[C@]12CC[C@H](O)C[C@@H]1CC[C@@H]1[C@@H]2CC[C@]2(C)[C@@H](O)CC[C@@H]12` [3β-Androstanediol, 5α-Androstane-3β,17β-diol], the “Log-(RBA) beta” value in series [1] is on record as 0.85. In addition, in series [2], the “log RBA” value is listed as −0.92. In addition, the “Class Input” value in series [3] is recorded as “S (key: Strong binders to the estrogen receptor were classified as having a log (RBA) over 0.0; M: medium binders to the estrogen receptor were classified as having a log (RBA) of less than or equal to 0.0)”. Moreover, in series [4], the “Log-(RBA) alpha” value is on record as 0.48. Further, the Class entry in series [5] is recorded as “M (Medium estrogen receptor binders were defined as having log(RBA) in between)”.
Regarding `C[C@]12CC[C@@H]3c4ccc(O)c(O)c4CC[C@H]3[C@@H]1CC[C@@H]2O` [4-OH-Estradiol, 4-hydroxy-estradiol], in series [1] (setting [9]), the “Log-(RBA) beta” value is given as 0.85. The “Class Input” value in series [3] (setting [8]) is “S (Strong binders to the estrogen receptor were classified as having a log (RBA) over 0.0)”. In addition, in series [4] (setting [9]), the “Log-(RBA) alpha” value is given as 1.11. Also, the Class entry in series [5] is given as “S (strong estrogen receptor binders were defined as having log(RBA)>−0.25)”.
As to `C[C@]12CCC(=O)C[C@@H]1CC[C@@H]1[C@@H]2CC[C@]2(C)C(=O)CC[C@@H]12` [5α-Androstanedione], the “Log-(RBA) beta” value in series [1] is reported as less than −2.0. In series [3], the “Class Input” value is “M (key: Strong binders to the estrogen receptor were classified as having a log (RBA) over 0.0; M: medium binders to the estrogen receptor were classified as having a log (RBA) of less than or equal to 0.0)” and the “RBA class in words” value is reported as “medium”. Besides, the “Log-(RBA) alpha” value in series [4] is less than −2.0.
`C[C@]12CCC(=O)C[C@H]1CC[C@@H]1[C@@H]2CC[C@]2(C)C(=O)CC[C@@H]12` [5β-Androstanedione]: the “Log-(RBA) beta” value in series [1] is recorded as less than −2.0. In series [3], the “Class Input” value is “M (key: Strong binders to the estrogen receptor were classified as having a log (RBA) over 0.0; M: medium binders to the estrogen receptor were classified as having a log (RBA) of less than or equal to 0.0)” and the “RBA class in words” value is reported as “medium”. In addition, in series [4], the “Log-(RBA) alpha” value is on record as less than −2.0.
Regarding `CC(C)(c1ccc(O)cc1)c1ccc(O)cc1` [Bisphenol A, 4,4′-isopropylidenediphenol], in series [1] (setting [9]), the “Log-(RBA) beta” value was −0.48. Further, the “log RBA” value in series [2] is listed as −2.11. The “Class Input” value in series [3] (setting [8]) is “M (medium binders to the estrogen receptor were classified as having a log (RBA) of less than or equal to 0.0)”. In addition, in series [4] (setting [9]), the “Log-(RBA) alpha” value is on record as −1.30. Further, the Class entry in series [5] was “M (Medium estrogen receptor binders were defined as having log(RBA) in between)”.
On to `C[C@]12CC[C@H](O)CC1=CC[C@@H]1[C@@H]2CC[C@]2(C)C(=O)CC[C@@H]12` [Dehydroepiandroster-one], for which the “Log-(RBA) beta” value in series [1] was −1.15. For the same molecule, the “Class Input” value in series [3] (setting [8]) is listed as “M (medium binders to the estrogen receptor were classified as having a log (RBA) of less than or equal to 0.0)”. The “Log-(RBA) alpha” value in series [4] was −1.40.
Regarding `C/C=C(/C(=C/C)c1ccc(O)cc1)c1ccc(O)cc1` [Dienestrol], the “Log-(RBA) beta” value in series [1] (setting [9]) was 2.61. Besides, the “log RBA” value in series [2] is 1.57. Also, in series [3] (setting [8]), the “Class Input” value is listed as “S (Strong binders to the estrogen receptor were classified as having a log (RBA) over 0.0)”. Besides, the “Log-(RBA) alpha” value in series [4] (setting [9]) was 2.35. Further, the Class result in series [5] was “S (strong estrogen receptor binders were defined as having log(RBA)>−0.25)”.
As to `CC[C@H](c1ccc(O)cc1)[C@@H](CC)c1ccc(O)cc1` [Hexestrol], in series [1] (setting [9]), the “Log-(RBA) beta” value is 2.37. In series [2], the “log RBA” value is recorded as 2.48. The “Class Input” value in series [3] (setting [8]) is reported as “S (Strong binders to the estrogen receptor were classified as having a log (RBA) over 0.0)”. For the same molecule, in series [4] (setting [9]), the “Log-(RBA) alpha” value is recorded as 2.48. In addition, in series [5], the Class result is given as “S (strong estrogen receptor binders were defined as having log(RBA)>−0.25)”.
Take `COc1ccc(C(c2ccc(OC)cc2)C(Cl)(Cl)Cl)cc1` [Methoxychlor]: the “Log-(RBA) beta” value in series [1] is given as −0.89. Also, in series [2], the “log RBA” value was −3.2. Also, the “Class Input” value in series [3] (setting [8]) is on record as “M (medium binders to the estrogen receptor were classified as having a log (RBA) of less than or equal to 0.0)”. Besides, the “Log-(RBA) alpha” value in series [4] is on record as −2.00.
Take `C#C[C@]1(O)CC[C@H]2[C@@H]3CCc4cc(O)ccc4[C@H]3[C@@H](OC)C[C@@]21C` [Moxestrol]: in series [1] (setting [9]), the “Log-(RBA) beta” value is listed as 0.70. For the same molecule, the “log RBA” value in series [2] is 1.14. For the same molecule, the “Class Input” value in series [3] (setting [8]) is “S (Strong binders to the estrogen receptor were classified as having a log (RBA) over 0.0)”. The “Log-(RBA) alpha” value in series [4] (setting [9]) is 1.63. Besides, the Class result in series [5] is “S (strong estrogen receptor binders were defined as having log(RBA)>−0.25)”.
As for `C[C@]12CC[C@H]3[C@@H](CCC4=CC(=O)CC[C@@H]43)[C@@H]1CC[C@@H]2O` [Nandrolone], in series [1], the “Log-(RBA) beta” value is −0.64. The “Class Input” value in series [3] (setting [8]) is “M (medium binders to the estrogen receptor were classified as having a log (RBA) of less than or equal to 0.0)”. Also, in series [4], the “Log-(RBA) alpha” value is −2.00.
With `CC(=O)[C@H]1CC[C@H]2[C@@H]3CCC4=CC(=O)CC[C@]4(C)[C@H]3CC[C@]12C` [Progesterone], in series [1] (setting [9]), the “Log-(RBA) beta” value is −3.50. In addition, in series [3] (setting [8]), the “Class Input” value is “M (medium binders to the estrogen receptor were classified as having a log (RBA) of less than or equal to 0.0)”. The “Log-(RBA) alpha” value in series [4] (setting [9]) is −3.50. The Class result in series [5] is given as “W (weak estrogen receptor binders were defined as having log(RBA)<−3.0)”.
Turning to `C[C@]12CC[C@H]3[C@@H](CCC4=CC(=O)CC[C@@]43C)[C@@H]1CC[C@@H]2O` [Testosterone], in series [1], the “Log-(RBA) beta” value was −2.10. Further, the “Class Input” value in series [3] (setting [8]) was “M (medium binders to the estrogen receptor were classified as having a log (RBA) of less than or equal to 0.0)”. In addition, the “Log-(RBA) alpha” value in series [4] was −2.10.
On to `O=c1c2ccccc2oc2ccccc12` [Xanthen-9-one], for which the “Quantum Yield” value in series [6] was 0.33. Moreover, the “Endpoint Class” value in series [7] is recorded as “L (low quantum yield for production of singlet oxygen (L, QY<0.50))”.
Regarding `C[C@H]1CCC[C@@H](O)CCCCCc2cc(O)cc(O)c2C(=O)O1` [β-Zearanol], the “Class Input” value in series [3] (setting [8]) was “M (medium binders to the estrogen receptor were classified as having a log (RBA) of less than or equal to 0.0)”. Further, in series [4] (setting [9]), the “Log-(RBA) alpha” value is on record as −1.20.

The record behind these values is patent publication US6898533B1, “Methods for predicting the biological, chemical, and physical properties of molecules from their spectral properties” (The United States of America as represented by the …, priority 2000, dated 2005).
